Test system: MPNST complex spheroid with HUVEC/MSC, growth, % test/control
Experiment: Anticancer human tumor MPNST cell line growth inhibition [Asc];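 further: compounds left on spheroids for seven days before reading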
Conditions: for IC50: curve of first compound; for viability, T/C: stronger effect = lower value
Method in brief: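 Complex solid-tumor spheroids incorporating human endothelial and mesenchymal stem cells received single agents or combinations over half-log dilution ranges anchored to clinical Cmax.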

CCN1CCN(Cc2ccc(Nc3ncc(F)c(-c4cc(F)c5nc(C)n(C(C)C)c5c4)n3)nc2)CC1 + Cc1c(S(C)(=O)=O)c(-c2cc(F)cc(N3CCN(c4ccc(NS(=O)(=O)c5ccc(NC(CCN6CCC(C(=O)OCCCP(=O)(O)O)CC6)CSc6ccccc6)c(S(=O)(=O)C(F)(F)F)c5)cc4)CC3)c2)c(-c2ccc(Cl)cc2)n1C(C)C
IC50 (second compound 0.1 µM): > 1000 nM | IC50 (second compound 0.316 µM): > 1000 nM | IC50 (second compound 1 µM): > 1000 nM | IC50 (second compound 3.16 µM): 1000 nM | IC50 (second compound 10 µM): 316 nM | viability, T/C (second compound 0.1 µM, first compound 0.00316 µM): 75.8% | viability, T/C (second compound 0.1 µM, first compound 0.01 µM): 72.3% | viability, T/C (second compound 0.1 µM, first compound 0.0316 µM): 73.7% | viability, T/C (second compound 0.1 µM, first compound 0.1 µM): 78.3% | viability, T/C (second compound 0.1 µM, first compound 0.316 µM): 55.8% | viability, T/C (second compound 0.1 µM, first compound 1 µM): 64.5% | viability, T/C (second compound 0.316 µM, first compound 0.00316 µM): 82.8% | viability, T/C (second compound 0.316 µM, first compound 0.01 µM): 54.8% | viability, T/C (second compound 0.316 µM, first compound 0.0316 µM): 75.6% | viability, T/C (second compound 0.316 µM, first compound 0.1 µM): 84.2% | viability, T/C (second compound 0.316 µM, first compound 0.316 µM): 53.5% | viability, T/C (second compound 0.316 µM, first compound 1 µM): 58% | viability, T/C (second compound 1 µM, first compound 0.00316 µM): 76.6% | viability, T/C (second compound 1 µM, first compound 0.01 µM): 78.5% | viability, T/C (second compound 1 µM, first compound 0.0316 µM): 76.9% | viability, T/C (second compound 1 µM, first compound 0.1 µM): 62.3% | viability, T/C (second compound 1 µM, first compound 0.316 µM): 53% | viability, T/C (second compound 1 µM, first compound 1 µM): 55.1% | viability, T/C (second compound 3.16 µM, first compound 0.00316 µM): 73.3% | viability, T/C (second compound 3.16 µM, first compound 0.01 µM): 77.9% | viability, T/C (second compound 3.16 µM, first compound 0.0316 µM): 57% | viability, T/C (second compound 3.16 µM, first compound 0.1 µM): 47.6% | viability, T/C (second compound 3.16 µM, first compound 0.316 µM): 56.3% | viability, T/C (second compound 3.16 µM, first compound 1 µM): 47.3% | viability, T/C (second compound 10 µM, first compound 0.00316 µM): 83.5% | viability, T/C (second compound 10 µM, first compound 0.01 µM): 91.4% | viability, T/C (second compound 10 µM, first compound 0.0316 µM): 50.2% | viability, T/C (second compound 10 µM, first compound 0.1 µM): 52.8% | viability, T/C (second compound 10 µM, first compound 0.316 µM): 55.4% | viability, T/C (second compound 10 µM, first compound 1 µM): 47.1%

NC(=O)C(=Cn1cnc(-c2cc(C(F)(F)F)cc(C(F)(F)F)c2)n1)c1cncnc1 + Cc1c(S(C)(=O)=O)c(-c2cc(F)cc(N3CCN(c4ccc(NS(=O)(=O)c5ccc(NC(CCN6CCC(C(=O)OCCCP(=O)(O)O)CC6)CSc6ccccc6)c(S(=O)(=O)C(F)(F)F)c5)cc4)CC3)c2)c(-c2ccc(Cl)cc2)n1C(C)C
IC50 (second compound 0.1 µM): > 300 nM | IC50 (second compound 0.316 µM): 172 nM | IC50 (second compound 1 µM): 72 nM | IC50 (second compound 3.16 µM): 37.4 nM | IC50 (second compound 10 µM): 75.6 nM | viability, T/C (second compound 0.1 µM, first compound 0.000949 µM): 56.9% | viability, T/C (second compound 0.1 µM, first compound 0.003 µM): 65.2% | viability, T/C (second compound 0.1 µM, first compound 0.00949 µM): 59% | viability, T/C (second compound 0.1 µM, first compound 0.03 µM): 80.2% | viability, T/C (second compound 0.1 µM, first compound 0.0949 µM): 66.9% | viability, T/C (second compound 0.1 µM, first compound 0.3 µM): 44.9% | viability, T/C (second compound 0.316 µM, first compound 0.000949 µM): 68.9% | viability, T/C (second compound 0.316 µM, first compound 0.003 µM): 80% | viability, T/C (second compound 0.316 µM, first compound 0.00949 µM): 74.3% | viability, T/C (second compound 0.316 µM, first compound 0.03 µM): 64.3% | viability, T/C (second compound 0.316 µM, first compound 0.0949 µM): 61.5% | viability, T/C (second compound 0.316 µM, first compound 0.3 µM): 40.6% | viability, T/C (second compound 1 µM, first compound 0.000949 µM): 78.6% | viability, T/C (second compound 1 µM, first compound 0.003 µM): 75.8% | viability, T/C (second compound 1 µM, first compound 0.00949 µM): 67.9% | viability, T/C (second compound 1 µM, first compound 0.03 µM): 54.4% | viability, T/C (second compound 1 µM, first compound 0.0949 µM): 50.6% | viability, T/C (second compound 1 µM, first compound 0.3 µM): 41.5% | viability, T/C (second compound 3.16 µM, first compound 0.000949 µM): 65.3% | viability, T/C (second compound 3.16 µM, first compound 0.003 µM): 78.5% | viability, T/C (second compound 3.16 µM, first compound 0.00949 µM): 70.1% | viability, T/C (second compound 3.16 µM, first compound 0.03 µM): 51.5% | viability, T/C (second compound 3.16 µM, first compound 0.0949 µM): 44.6% | viability, T/C (second compound 3.16 µM, first compound 0.3 µM): 39.3% | viability, T/C (second compound 10 µM, first compound 0.000949 µM): 73.3% | viability, T/C (second compound 10 µM, first compound 0.003 µM): 72.4% | viability, T/C (second compound 10 µM, first compound 0.00949 µM): 65.6% | viability, T/C (second compound 10 µM, first compound 0.03 µM): 58.4% | viability, T/C (second compound 10 µM, first compound 0.0949 µM): 48% | viability, T/C (second compound 10 µM, first compound 0.3 µM): 34.6%

From PubChem BioAssay AID1963442 (Molecular Pharmacology Branch, DTP, NCI, 2024)
